The values below come from article PMC9729598 (Bioorganic Chemistry, 2022).

Values joined by “and” are separate entries in the source; they are usually repeats but may differ in a detail not shown here. Equal values may be shown once.

Data set [1] relates to pSARS-CoV-2. Type of data set: cell-based, SARS-CoV-2.
Data set [2] has as its system 293 T-ACE2 cells.
Data set [3] deals with SARS-CoV-2 3CL protease (Severe acute respiratory syndrome coronavirus 2, UniProt P0DTD1). Nature of the data set: biochemical. Conditions: for inhibition at 100 µM: read-out: inhibition rate against 3CL (%).
Data set [4] concerns SARS 3CL protease. Conditions: read-out: IC50 on SARS 3CL protease activity; cited from earlier work.

The EC50 is the concentration needed to bring the measured effect to its halfway point. Usually CC50 stands for the concentration that lowers cell viability or growth by half. Lower therefore signals harm at low concentration. As to `C=C(C)[C@@H]1CC[C@]2(C(=O)OCCCCC)CC[C@]3(C)[C@H](CC[C@@H]4[C@@]5(C)CC[C@H](O[C@@H]6O[C@H](CO)[C@@H](O[C@@H]7O[C@@H](C)[C@H](O)[C@@H](O)[C@H]7O)[C@H](O)[C@H]6O[C@@H]6O[C@@H](C)[C@H](O)[C@@H](O)[C@H]6O)C(C)(C)[C@@H]5CC[C@]43C)[C@@H]12` [BA-6, n-Pentyl-3β-O-[2,4-di-O-(α-l-rhamnopyranosyl)-β-d-glucopyranosyl]-lup-20 (29)-ene-28-oic acid], in data set [1], the response was half-maximal at 5.37 ± 0.37 µM (EC50) and the SI was 4.54. In data set [2], this compound showed a 50% cytotoxic concentration (CC50) of 24.4 ± 0.33 µM and a fold increased toxic of 1.7 fold.
For `C=C(C)[C@@H]1CC[C@]2(C(=O)OCC3CC3)CC[C@]3(C)[C@H](CC[C@@H]4[C@@]5(C)CC[C@H](O[C@@H]6O[C@H](CO)[C@@H](O[C@@H]7O[C@@H](C)[C@H](O)[C@@H](O)[C@H]7O)[C@H](O)[C@H]6O[C@@H]6O[C@@H](C)[C@H](O)[C@@H](O)[C@H]6O)C(C)(C)[C@@H]5CC[C@]43C)[C@@H]12` [BA-15, Cyclopropylmethyl-3β-O-[2,4-di-O-(α-l-rhamnopyranosyl)-β-d-glucopyranosyl]-lup-20 (29)-ene-28-oic acid], in data set [1], the midpoint of the response, the EC50, lay at 15.9 ± 0.82 µM; the SI worked out at 4.75; the fold decreased potency is 4.9 fold. The compound also yielded a CC50 in data set [2] of 75.5 ± 1.63 µM.
For the compound `C=C(C)[C@@H]1CC[C@]2(C(=O)OC(C)C)CC[C@]3(C)[C@H](CC[C@@H]4[C@@]5(C)CC[C@H](O[C@@H]6O[C@H](CO)[C@@H](O[C@@H]7O[C@@H](C)[C@H](O)[C@@H](O)[C@H]7O)[C@H](O)[C@H]6O[C@@H]6O[C@@H](C)[C@H](O)[C@@H](O)[C@H]6O)C(C)(C)[C@@H]5CC[C@]43C)[C@@H]12` [BA-8, Isopropyl-3β-O-[2,4-di-O-(α-l-rhamnopyranosyl)-β-d-glucopyranosyl]-lup-20 (29)-ene-28-oic acid], in data set [1], the midpoint of the response, the EC50, lay at 6.05 ± 0.38 µM and the SI was determined as 7.81. The compound also came in with a CC50 in data set [2] of 47.2 ± 0.63 µM.
In the case of `C=C(C)[C@@H]1CC[C@]2(C(=O)OCC)CC[C@]3(C)[C@H](CC[C@@H]4[C@@]5(C)CC[C@H](O[C@@H]6O[C@H](CO)[C@@H](O[C@@H]7O[C@@H](C)[C@H](O)[C@@H](O)[C@H]7O)[C@H](O)[C@H]6O[C@@H]6O[C@@H](C)[C@H](O)[C@@H](O)[C@H]6O)C(C)(C)[C@@H]5CC[C@]43C)[C@@H]12` [BA-3, Ethyl-3β-O-[2,4-di-O-(α-l-rhamnopyranosyl)-β-d-glucopyranosyl]-lup-20 (29)-ene-28-oic acid], in data set [1], it took 3.7 ± 0.72 µM to reach a half-maximal effect (EC50) and the SI worked out at 9.76. The midpoint of cytotoxicity in data set [2], the CC50, lay at 36.1 ± 1.05 µM.
For `C=C(C)C1CCC2(C(=O)OC3CCCCC3)CCC3(C)C(CCC4C5(C)CCC(OC6OC(CO)C(OC7OC(C)C(O)C(O)C7O)C(O)C6OC6OC(C)C(O)C(O)C6O)C(C)(C)C5CCC43C)C12` (stereo not drawn) [BA-9, Cyclohexyl-3β-O-[2,4-di-O-(α-l-rhamnopyranosyl)-β-d-glucopyranosyl]-lup-20 (29)-ene-28-oic acid], in data set [1], the EC50 is over 20 µM and the “activity against pSARS-CoV-2” value was “entirely lost”.
In data set [1], “2′-Oxopethyl-3β-O-[2, 4-di-O-(α-l-rhamnopyranosyl)-β-d-glucopyranosyl]-lup-20 (29)-ene-28-oic acid [BA-13]” returned an EC50 of 8.61 ± 0.47 µM and an SI of 4.21. In data set [2], this compound displayed a CC50 of 36.2 ± 0.75 µM.
Take `C=C(C)C1CCC2(C(=O)OCCO)CCC3(C)C(CCC4C5(C)CCC(OC6OC(CO)C(OC7OC(C)C(O)C(O)C7O)C(O)C6OC6OC(C)C(O)C(O)C6O)C(C)(C)C5CCC43C)C12` (stereo not drawn) [BA-12, 2′-Hydroxylethyl-3β-O-[2,4-di-O-(α-l-rhamnopyranosyl)-β-d-glucopyranosyl]-lup-20 (29)-ene-28-oic acid]: in data set [1], the EC50 was over 20 µM and the “activity against pSARS-CoV-2” value is listed as “total loss of potency”.
One may read the inhibition as the drop in the measured response relative to a control, in per cent. What is called IC50 is the point on the concentration scale where inhibition reaches its midpoint. For `C=C(C)[C@@H]1CC[C@]2(C(=O)O)CC[C@]3(C)[C@H](CC[C@@H]4[C@@]5(C)CC[C@H](O)C(C)(C)[C@@H]5CC[C@]43C)[C@@H]12` [BA, Betulinic acid], in data set [3], the “inhibition rate against 3CL (%)” value came out at 51.4% and the inhibition at 100 µM turned out to be 72.2%. Further, the 50% inhibitory concentration (IC50) in data set [4] is 10 µM.
Turning to `C=C(C)[C@@H]1CC[C@]2(C(=O)OCCCCCC)CC[C@]3(C)[C@H](CC[C@@H]4[C@@]5(C)CC[C@H](O[C@@H]6O[C@H](CO)[C@@H](O[C@@H]7O[C@@H](C)[C@H](O)[C@@H](O)[C@H]7O)[C@H](O)[C@H]6O[C@@H]6O[C@@H](C)[C@H](O)[C@@H](O)[C@H]6O)C(C)(C)[C@@H]5CC[C@]43C)[C@@H]12` [BA-7, n-Hexyl-3β-O-[2,4-di-O-(α-l-rhamnopyranosyl)-β-d-glucopyranosyl]-lup-20 (29)-ene-28-oic acid], in data set [1], the EC50 amounted to 5.54 ± 0.81 µM and the SI is 2.96. In data set [2], this compound gave a CC50 of 16.4 ± 0.19 µM and a fold increased toxic of 2.5 fold.
As to `O=c1c2ccccc2[se]n1-c1ccccc1` [Ebselen], in data set [3], the “inhibition rate against 3CL (%)” value was 97.6% and 96.2%; the inhibition at 100 µM was found to be 98.5%.
For the compound `C=C(C)[C@@H]1CC[C@]2(C(=O)OCCCC)CC[C@]3(C)[C@H](CC[C@@H]4[C@@]5(C)CC[C@H](O[C@@H]6O[C@H](CO)[C@@H](O[C@@H]7O[C@@H](C)[C@H](O)[C@@H](O)[C@H]7O)[C@H](O)[C@H]6O[C@@H]6O[C@@H](C)[C@H](O)[C@@H](O)[C@H]6O)C(C)(C)[C@@H]5CC[C@]43C)[C@@H]12` [BA-5, n-Butyl-3β-O-[2,4-di-O-(α-l-rhamnopyranosyl)-β-d-glucopyranosyl]-lup-20 (29)-ene-28-oic acid], in data set [1], the EC50 came out at 6.42 ± 0.2 µM and the SI is 11.91. The compound also yielded a CC50 in data set [2] of 76.5 ± 1.23 µM.
In the case of `C=C(C)[C@@H]1CC[C@]2(C(=O)OCCCl)CC[C@]3(C)[C@H](CC[C@@H]4[C@@]5(C)CC[C@H](O[C@@H]6O[C@H](CO)[C@@H](O[C@@H]7O[C@@H](C)[C@H](O)[C@@H](O)[C@H]7O)[C@H](O)[C@H]6O[C@@H]6O[C@@H](C)[C@H](O)[C@@H](O)[C@H]6O)C(C)(C)[C@@H]5CC[C@]43C)[C@@H]12` [BA-10, 2′-Chloroethyl-3β-O-[2,4-di-O-(α-l-rhamnopyranosyl)-β-d-glucopyranosyl]-lup-20 (29)-ene-28-oic acid], in data set [1], the EC50 is 7.67 ± 0.31 µM, the SI came out at 6.75 and the fold decreased potency came out at 2.4 fold. The compound further returned a CC50 in data set [2] of 51.8 ± 1.35 µM.
Regarding `C=CCOC(=O)[C@]12CC[C@@H](C(=C)C)[C@@H]1[C@H]1CC[C@@H]3[C@@]4(C)CC[C@H](O[C@@H]5O[C@H](CO)[C@@H](O[C@@H]6O[C@@H](C)[C@H](O)[C@@H](O)[C@H]6O)[C@H](O)[C@H]5O[C@@H]5O[C@@H](C)[C@H](O)[C@@H](O)[C@H]5O)C(C)(C)[C@@H]4CC[C@@]3(C)[C@]1(C)CC2` [BA-14, Allyl-3β-O-[2,4-di-O-(α-l-rhamnopyranosyl)-β-d-glucopyranosyl]-lup-20 (29)-ene-28-oic acid], in data set [1], the concentration giving a half-maximal response (EC50) worked out at 8.23 ± 0.55 µM, the SI was 10.28 and the fold decreased potency amounted to 2.6 fold. In addition, the CC50 in data set [2] turned out to be 84.62 ± 0.76 µM.
In data set [1], `C=C(C)[C@@H]1CC[C@]2(C(=O)OCCBr)CC[C@]3(C)[C@H](CC[C@@H]4[C@@]5(C)CC[C@H](O[C@@H]6O[C@H](CO)[C@@H](O[C@@H]7O[C@@H](C)[C@H](O)[C@@H](O)[C@H]7O)[C@H](O)[C@H]6O[C@@H]6O[C@@H](C)[C@H](O)[C@@H](O)[C@H]6O)C(C)(C)[C@@H]5CC[C@]43C)[C@@H]12` [BA-11, 2′-Bromoethyl 3β-O-[2,4-di-O-(α-l-rhamnopyranosyl)-β-d-glucopyranosyl]-lup-20 (29)-ene-28-oic acid] gave an EC50 of 9.03 ± 0.56 µM and an SI of 5.11. Also, in data set [2], the CC50 amounted to 46.12 ± 0.31 µM.
